# Reference: patent US20090209536A1, “AMINOQUINAZOLINE CANNABINOID RECEPTOR MODULATORS FOR TREATMENT OF DISEASE” (KALYPSYS, INC., priority 2007, published 2009)
# Where two headings read alike, the source gives them in different places.
# Experiments:
# [1] = target: T1, human cannabinoid receptor type 2 (Homo sapiens, UniProt P34972); experiment: Human CB2 Radioligand Binding Assay; conditions: membranes from stably transfected CHO CB2 cells
# T1 construct: expressed in transfected cells; membrane preparation
# T1 sequence (P34972 whole entry): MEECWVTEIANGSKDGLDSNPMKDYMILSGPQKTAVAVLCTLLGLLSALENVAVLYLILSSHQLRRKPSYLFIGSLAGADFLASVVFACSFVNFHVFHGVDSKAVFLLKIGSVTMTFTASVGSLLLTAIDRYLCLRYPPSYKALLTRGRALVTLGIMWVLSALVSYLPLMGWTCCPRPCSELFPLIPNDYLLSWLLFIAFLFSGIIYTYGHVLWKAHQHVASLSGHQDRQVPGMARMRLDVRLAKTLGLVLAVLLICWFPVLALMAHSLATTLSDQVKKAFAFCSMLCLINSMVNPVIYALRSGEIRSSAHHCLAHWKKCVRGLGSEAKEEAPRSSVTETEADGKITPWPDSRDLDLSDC
# Protocol: 1. Human CB2 Radioligand Binding Assay
# This receptor binding filtration assay measures the receptor-ligand interactions of compounds by measuring ability to compete with a radiolabeled control ligand. Reactions were performed in 96 deep-well plate (Costar 3961) with a final volume of 600 ul. Compounds were added to each well either in single point (10 uM final) or dose-response. Compounds were delivered in DMSO or further diluted in incubation buffer to a final assay DMSO concentration of 1%. Incubation buffer (50 mM Tris-HCl pH 7.4, 2.5 mM EGTA, 5 mM MgCl2, 5.0 mg/ml fatty acid free BSA) was added to each well. Following buffer addition, [^3H] CP-55,940 was added. Tritiated CP-55,940 (Perkin Elmer) was used at the Kd determined from prior saturation binding experiments conducted on each lot of membranes. Membrane preparations from stably transfected CHO CB2 cells were added and the reaction was incubated for 90 minutes at 30° C. Unifilter GF/C filtration plates (Perkin Elmer) were pre-wet with 0.05% polyethylenimine. Samples were transferred to Unifilter plates and separation of unbound radioligand was achieved using a vacuum manifold (Millipore). Following thorough washing with 5 ml/well ice-cold wash buffer (50 mM Tris-HCl pH 7.4, 2.5 mM EGTA, 5 mM MgCl2, 0.5 mg/ml fatty acid free BSA), filterplates were dried completely. Betaplate Scint Scintillation cocktail (25 ul, Perkin Elmer) was applied and plates were read using Microbeta Trilux (Wallac). Data analysis was performed in Spotfire. Activity of the positive control (100 nM CP-55,940) was set as 100% efficacy.
# Stable recombinant Human CB2-CHO cell membranes were prepared as follows: Chinese Hamster Ovarian (CHO) cells stably expressing human cannabinoid receptor type 2 were grown to 90% confluence in 15×100 mm culture dishes under puromycin selection (5 ug/ml) Cells were harvested from culture flasks using a cell scraper, were washed once with cold phosphate-buffered saline (calcium and magnesium free) and pelleted by centrifugation at 400 g for 5 min at 4° C. Cell pellet was washed once with cold phosphate-buffered saline and centrifuged again at 400×g for 5 min at 4° C. The pellet was suspended in ice-cold lysis buffer (10 mM Tris-HCl, 0.1 mM EDTA, containing […], pH 7.5) and homogenized in a chilled 7 ml glass dounce homogenizer using 50 strokes. The homogenate was centrifuged at 400 g for 15 min at 4° C. The cloudy supernatant was collected and centrifuged at 41000 g for 30 min at 4° C. The resulting pellet was washed with ice-cold sucrose-free lysis buffer and centrifuged again at 41000 g for 30 min at 4° C. The membrane pellet was suspended in sucrose-free storage buffer (10 mm Tris-HCl, 0.1 mM EDTA, pH 7.5) to a concentration of 2-3 mg protein/ml. Aliquots were flash frozen in liquid nitrogen and stored at −80° C. Concentration was determined using Dc protein assay kit (Bio-Rad).
# [2] = target: T2, human cannabinoid receptor type 1 (Homo sapiens, UniProt P21554); experiment: Human CB1 Radioligand Binding Assay (basis of selectivity, CB2 vs. CB1); conditions: CB1: HEK 293 EBNA cells expressing human CB1; CB2: CHO CB2 membranes
# T2 construct: purchased Perkin Elmer RBHCB1M; host or cells: HEK 293 EBNA cells
# T2 sequence (P21554 whole entry): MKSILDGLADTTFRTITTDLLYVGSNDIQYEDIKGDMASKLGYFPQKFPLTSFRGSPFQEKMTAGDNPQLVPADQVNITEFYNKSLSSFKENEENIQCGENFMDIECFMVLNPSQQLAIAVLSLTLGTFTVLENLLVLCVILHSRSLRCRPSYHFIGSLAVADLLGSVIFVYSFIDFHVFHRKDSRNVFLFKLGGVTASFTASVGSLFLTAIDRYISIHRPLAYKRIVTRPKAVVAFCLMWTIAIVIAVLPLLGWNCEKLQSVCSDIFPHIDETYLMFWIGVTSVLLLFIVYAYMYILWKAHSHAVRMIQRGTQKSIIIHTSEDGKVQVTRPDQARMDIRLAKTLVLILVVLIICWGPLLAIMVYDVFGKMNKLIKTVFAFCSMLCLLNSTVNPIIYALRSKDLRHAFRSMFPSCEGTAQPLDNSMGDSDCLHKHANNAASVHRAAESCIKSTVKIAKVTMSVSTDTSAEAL
# Protocol: 2. Human CB1 Radioligand Binding Assay
# The incubation buffer was composed of 50 mM Tris-HCl pH 7.4, 2.5 mM EDTA, 5 mM MgCl2, 5.0 mg/ml fatty acid free BSA and the wash buffer was composed of 50 mM Tris-HCl pH 7.4, 2.5 mM EDTA, 5 mM MgCl2, 0.5 mg/ml fatty acid free BSA.
# [3] = competition with [3H] CP-55,940, read-out: CB2 Ligand Binding Asssay EC50
Structure (SMILES),"EC50 [1, 3] [nM]","Selectivity, CB2 vs. CB1 [2]","EC50 ([1]; CB2 Ligand Binding Asssay EC50, competition with [3H] CP-55,940) [nM]"
"O=C1CN(c2nc(-c3ccccc3Cl)nc3ccccc23)CCN1 [Example 72, 4-(2-(2-Chlorophenyl)quinazolin-4-yl)piperazin-2-one]",> 1000,− (− indicates ≦ 10−fold),
"CC(=O)N1CCN(c2nc(-c3ccccc3F)nc3cccc(F)c23)CC1 [Example 280, 1-(4-(5-Fluoro-2-(2-fluorophenyl)quinazolin-4-yl)piperazin-1-yl)ethanone]",< 1000,+ (+ indicates > 10−fold),
"Fc1ccc(-c2nc(N3CCOCC3)c3ccccc3n2)cc1F [Example 16, 4-(2-(3,4-difluorophenyl)quinazolin-4-yl)morpholine]",> 1000,− (− indicates ≦ 10−fold),
"FC(F)(F)c1cccc2nc(-c3ccccc3Cl)nc(N3CCCC3)c12 [Example 242, 2-(2-Chlorophenyl)-4-(pyrrolidin-1-yl)-5-(trifluoromethyl)quinazoline]",< 1000,+ (+ indicates > 10−fold),
"Clc1ccc2nc(C3CCCCC3)nc(N3CCCC3)c2c1 [Example 167, 6-Chloro-2-cyclohexyl-4-(pyrrolidin-1-yl)quinazoline]",< 1000,+ (+ indicates > 10−fold),
"CC(C)S(=O)(=O)N1CCN(c2nc(-c3ccccc3Cl)nc3ccccc23)CC1 [Example 83, 2-(2-Chlorophenyl)-4-[4-(propane-2-sulfonyl)piperazin-1-yl]quinazoline]",,− (− indicates ≦ 10−fold),> 1000
"CC(C)(C)c1ccc2c(N3CCCC3)nc(Nc3ccccc3)nc2c1 [Example 287, 7-tert-Butyl-N-phenyl-4-(pyrrolidin-1-yl)quinazolin-2-amine]",< 1000,+ (+ indicates > 10−fold),
"CN(c1ccc(C(C)(C)C)cc1)c1nc(-c2ccc(F)c(F)c2)nc2ccccc12 [Example 21, N-(4-tert-Butylphenyl)-2-(3,4-difluorophenyl)-N-methylquinazolin-4-amine]",> 1000,− (− indicates ≦ 10−fold),

# Continued, in another order:
"EC50 [1, 3] [nM]","Selectivity, CB2 vs. CB1 [2]",Structure (SMILES),"EC50 ([1]; CB2 Ligand Binding Asssay EC50, competition with [3H] CP-55,940) [nM]"
< 1000,− (− indicates ≦ 10−fold),"CN(CC1CC1)c1nc(-c2ccc(C(C)(C)C)cc2)nc2ccccc12 [Example 132, 2-(4-tert-Butylphenyl)quinazolin-4-yl cyclopropylmethyl-N-methylamine]",
< 1000,+ (+ indicates > 10−fold),"CCN(CC)C(=O)c1ccc2nc(-c3ccccc3Cl)nc(N3CCN(C)CC3)c2c1 [Example 311, 2-(2-Chlorophenyl)-N,N-diethyl-4-(4-methylpiperazin-1-yl)quinazoline-6-carboxamide]",
< 1000,+ (+ indicates > 10−fold),"COC(=O)c1sccc1S(=O)(=O)NCc1nc(N2CCCC2)c2ccccc2n1 [Example 7, Methyl 3-(N-((4-(Pyrrolidin-1-yl)quinazolin-2-yl)methyl)sulfamoyl)thiophene-2-carboxylate]",
< 1000,+ (+ indicates > 10−fold),"CCc1ccc2nc(-c3ccccc3Cl)nc(N3CCCC3)c2c1 [Example 176, 2-(2-Chlorophenyl)-6-ethyl-4-(pyrrolidin-1-yl)quinazoline]",
< 1000,− (− indicates ≦ 10−fold),"CC(C)(C)c1ccc(-c2nc(N3CCOCC3)c3ccccc3n2)cc1 [Example 112, 4-(2-(4-tert-Butylphenyl)quinazolin-4-yl)morpholine]",
< 1000,+ (+ indicates > 10−fold),"Clc1ccccc1-c1nc(N2CCCCC2)c2ccccc2n1 [Example 54, 2-(2-Chlorophenyl)-4-(piperidin-1-yl)quinazoline]",
< 1000,+ (+ indicates > 10−fold),"CC(C)(C)c1ccc2nc(-c3ccccc3Cl)nc(N3CCCCC3)c2c1 [Example 170, 6-tert-Butyl-2-(2-chlorophenyl)-4-(piperidin-1-yl)quinazoline]",
